Usually EC50 stands for the concentration that produces a half-maximal response.

In assay [1] the target is human glucagon receptor (hGCGR) (Homo sapiens, UniProt P47871). The experiment in a line: cAMP production (HTRF) in CHO cells expressing hGCGR. The assay is classed as cell-based. Also on record: expressed in transfected cells. To be noted: geometric mean, read-out: hGluc-R EC50. In a few lines:
(§1)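 Potency values represent EC50 from 4-parameter logistic curves of HTRF % Delta F signal. Receptor-expressing CHO cells (hGCGR 2×10^5 cells/mL, hGLP-1R 1×10^5 cells/mL) were exposed for 30 min at room temperature before two-step cAMP detection.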

Assay [2] has as its target human GLP-1 receptor (hGLP-1R) (Homo sapiens, UniProt P43220). The experiment in a line: cAMP production (HTRF) in CHO cells expressing hGLP-1R. The assay is classed as cell-based. Also on record: expressed in transfected cells. The conditions noted are these: for EC50: geometric mean, read-out: hGLP-1R EC50; for % Relative Potency Ratio: % GLP-1R activity relative to GLP-1 / % GlucR activity relative to glucagon. The gist of the method:
as §1
On the technique in general: Cyclic AMP is a second messenger, typically raised through Gs and lowered through Gi signalling.

Setting [3] is: Table 6, peptides modified at position 17, cAMP in CHO hGCGR cells.
Setting [4] is: Table 6, peptides modified at position 17, cAMP in CHO hGLP-1R cells.
Where [5] appears, read: Table 7, peptides modified at position 20, cAMP in CHO hGCGR cells.
[6] abbreviates: Table 7, peptides modified at position 20, cAMP in CHO hGLP-1R cells.

Like-named read-outs stand apart in the source and are kept apart here. Starred links: 1 amine or outer side, 2 acyl side, 3 side chain; linkers in the order of their positions; H or OH if unused. Non-standard residues stand in square brackets, D forms with d. Residues, ends and D or L forms follow the SMILES beside them. Groups on a side chain read outwards from the residue. *: point of attachment. C20 diacid = O=C(O)CCCCCCCCCCCCCCCCCCC(=O)*; C18 diacid = O=C(O)CCCCCCCCCCCCCCCCC(=O)*; γGlu = O=C(O)[C@H](CCC(=O)[*:2])N[*:1]; αMeF = C[C@](N)(Cc1ccccc1)C(=O)O; AEEA = NCCOCCOCC(=O)O; Aib = CC(C)(N)C(=O)O

Chain of human GLP-1 receptor (hGLP-1R) (P43220 24-463): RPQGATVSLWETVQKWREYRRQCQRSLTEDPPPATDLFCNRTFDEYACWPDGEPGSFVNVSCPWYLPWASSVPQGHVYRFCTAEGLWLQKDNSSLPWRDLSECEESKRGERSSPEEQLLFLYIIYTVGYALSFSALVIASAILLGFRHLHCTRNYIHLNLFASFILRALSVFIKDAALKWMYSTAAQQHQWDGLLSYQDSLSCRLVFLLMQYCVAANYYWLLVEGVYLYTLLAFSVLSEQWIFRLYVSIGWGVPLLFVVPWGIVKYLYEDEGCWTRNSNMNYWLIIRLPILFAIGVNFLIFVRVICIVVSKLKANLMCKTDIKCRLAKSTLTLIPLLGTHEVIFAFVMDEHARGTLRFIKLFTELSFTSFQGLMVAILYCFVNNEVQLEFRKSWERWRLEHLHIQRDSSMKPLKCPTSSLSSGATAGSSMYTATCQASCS
Chain of human glucagon receptor (hGCGR) (P47871 26-477): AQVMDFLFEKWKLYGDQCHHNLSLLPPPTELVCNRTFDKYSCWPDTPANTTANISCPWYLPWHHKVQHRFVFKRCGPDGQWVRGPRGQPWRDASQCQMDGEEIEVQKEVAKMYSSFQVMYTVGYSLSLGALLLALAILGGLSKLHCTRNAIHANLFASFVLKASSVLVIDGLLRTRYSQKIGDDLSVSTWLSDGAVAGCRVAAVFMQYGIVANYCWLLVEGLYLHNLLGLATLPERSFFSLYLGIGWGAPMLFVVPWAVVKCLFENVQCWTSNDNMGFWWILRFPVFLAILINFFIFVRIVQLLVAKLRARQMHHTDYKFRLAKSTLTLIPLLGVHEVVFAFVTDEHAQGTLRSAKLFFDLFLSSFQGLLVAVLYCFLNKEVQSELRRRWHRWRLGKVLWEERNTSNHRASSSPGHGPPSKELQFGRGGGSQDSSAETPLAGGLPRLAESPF

Regarding `CC(C)C[C@H](NC(=O)[C@H](Cc1c[nH]c2ccccc12)NC(=O)[C@H](CCC(N)=O)NC(=O)[C@@H](NC(=O)[C@H](Cc1ccccc1)NC(=O)[C@H](CC(=O)O)NC(=O)[C@H](CCC(N)=O)NC(=O)[C@H](C)NC(=O)[C@H](CCCNC(=N)N)NC(=O)[C@H](CCCCNC(=O)COCCOCCNC(=O)COCCOCCNC(=O)CC[C@H](NC(=O)CCCCCCCCCCCCCCCCCCC(=O)O)C(=O)O)NC(=O)[C@@H](NC(=O)[C@H](CC(=O)O)NC(=O)[C@H](CC(C)C)NC(=O)[C@](C)(Cc1ccccc1)NC(=O)[C@H](CCCCN)NC(=O)[C@H](CO)NC(=O)[C@@H](NC(=O)[C@H](CC(=O)O)NC(=O)[C@H](CO)NC(=O)[C@@H](NC(=O)[C@H](Cc1ccccc1)NC(=O)[C@@H](NC(=O)CNC(=O)[C@H](CCC(N)=O)NC(=O)C(C)(C)NC(=O)[C@@H](N)Cc1c[nH]cn1)[C@@H](C)O)[C@@H](C)O)C(C)C)[C@@H](C)O)C(C)C)C(=O)N[C@@H](CC(C)C)C(=O)N[C@@H](CCC(=O)O)C(=O)NC(C)(C)C(=O)N[C@@H](CCCCN)C(N)=O` [Peptide 505] (H-H[Aib]QGTFTSDVSK[αMeF]LDTK([AEEA-AEEA-γGlu-C20 diacid])RAQDFVQWLLE[Aib]K-NH2), the EC50 in assay [1] (setting [3]) was determined as 0.191 nM; in assay [2] (setting [4]), 0.0421 nM. Besides, the “% Relative Potency Ratio” value in assay [2] (Table 6) worked out at 9.0.
For `CC[C@H](C)[C@H](NC(=O)CNC(=O)[C@H](CCCNC(=N)N)NC(=O)[C@H](CO)NC(=O)[C@H](C)NC(=O)[C@H](CC(C)C)NC(=O)[C@H](Cc1c[nH]c2ccccc12)NC(=O)[C@H](CCCNC(=N)N)NC(=O)[C@@H](NC(=O)[C@H](Cc1ccccc1)NC(=O)[C@H](CC(=O)O)NC(=O)[C@H](CCC(N)=O)NC(=O)[C@H](C)NC(=O)[C@H](CCCNC(=N)N)NC(=O)[C@H](CCCCNC(=O)COCCOCCNC(=O)COCCOCCNC(=O)CC[C@H](NC(=O)CCCCCCCCCCCCCCCCC(=O)O)C(=O)O)NC(=O)[C@H](CO)NC(=O)[C@H](CC(=O)O)NC(=O)[C@H](CC(C)C)NC(=O)[C@](C)(Cc1ccccc1)NC(=O)[C@H](CCCCN)NC(=O)[C@H](CO)NC(=O)[C@@H](NC(=O)[C@H](CC(=O)O)NC(=O)[C@H](CO)NC(=O)[C@@H](NC(=O)[C@H](Cc1ccccc1)NC(=O)[C@@H](NC(=O)CNC(=O)[C@H](CCC(N)=O)NC(=O)C(C)(C)NC(=O)[C@@H](N)Cc1c[nH]cn1)[C@@H](C)O)[C@@H](C)O)C(C)C)C(C)C)C(=O)O` [Peptide 145] (H-H[Aib]QGTFTSDVSK[αMeF]LDSK([AEEA-AEEA-γGlu-C18 diacid])RAQDFVRWLASRGI-OH) the same measures were 4.59 nM, 0.0226 nM and 401.2.
As for `CC[C@H](C)[C@H](NC(=O)C(C)(C)NC(=O)[C@H](CCC(N)=O)NC(=O)[C@@H](NC(=O)[C@](C)(Cc1ccccc1)NC(=O)[C@H](CC(=O)O)NC(=O)[C@H](CCCCNC(=O)COCCOCCNC(=O)COCCOCCNC(=O)CC[C@H](NC(=O)CC[C@H](NC(=O)CCCCCCCCCCCCCCCCCCC(=O)O)C(=O)O)C(=O)O)NC(=O)[C@H](C)NC(=O)[C@H](C)NC(=O)[C@H](CCCNC(=N)N)NC(=O)[C@H](CO)NC(=O)[C@H](CC(=O)O)NC(=O)[C@H](CC(C)C)NC(=O)[C@](C)(Cc1ccccc1)NC(=O)[C@H](CCCNC(=N)N)NC(=O)[C@H](CO)NC(=O)[C@@H](NC(=O)[C@H](CC(=O)O)NC(=O)[C@H](CO)NC(=O)[C@@H](NC(=O)[C@](C)(Cc1ccccc1)NC(=O)[C@H](CO)NC(=O)CNC(=O)[C@H](Cc1c[nH]cn1)NC(=O)C(C)(C)NC(=O)[C@@H](N)Cc1c[nH]cn1)[C@@H](C)O)C(C)C)C(C)C)C(=O)N[C@@H](C)C(=O)N[C@@H](CC(N)=O)C(=O)N[C@H](C(N)=O)[C@@H](C)O` [Peptide 298] (H-H[Aib]HGS[αMeF]TSDVSR[αMeF]LDSRAAK([AEEA-AEEA-γGlu-γGlu-C20 diacid])D[αMeF]VQ[Aib]IANT-NH2), the EC50 in assay [1] (setting [5]) is 0.573 nM; in assay [2] (setting [6]), 0.0755 nM. Also, the “% Relative Potency Ratio” value in assay [2] (Table 7) turned out to be 15.0.
Turning to `CC(C)C[C@H](NC(=O)[C@H](Cc1c[nH]c2ccccc12)NC(=O)[C@H](C)NC(=O)[C@@H](NC(=O)[C@H](Cc1ccccc1)NC(=O)[C@H](CC(=O)O)NC(=O)[C@H](CCCCNC(=O)COCCOCCNC(=O)COCCOCCNC(=O)CC[C@H](NC(=O)CCCCCCCCCCCCCCCCC(=O)O)C(=O)O)NC(=O)[C@H](C)NC(=O)[C@H](CCCNC(=N)N)NC(=O)[C@H](CCC(=O)O)NC(=O)[C@H](CO)NC(=O)[C@H](CC(=O)O)NC(=O)[C@H](CC(C)C)NC(=O)[C@](C)(Cc1ccccc1)NC(=O)[C@H](CCCCN)NC(=O)[C@H](CO)NC(=O)[C@@H](NC(=O)[C@H](CC(=O)O)NC(=O)[C@H](CO)NC(=O)[C@@H](NC(=O)[C@H](Cc1ccccc1)NC(=O)[C@@H](NC(=O)CNC(=O)[C@H](CCC(N)=O)NC(=O)C(C)(C)NC(=O)[C@@H](N)Cc1c[nH]cn1)[C@@H](C)O)[C@@H](C)O)C(C)C)C(C)C)C(=O)N[C@@H](CCC(=O)O)C(=O)N[C@@H](C)C(=O)NC(C)(C)C(=O)NCC(=O)O` [Peptide 526], the EC50 came out at 0.69 nM in assay [1] (setting [5]) and 0.194 nM in assay [2] (setting [6]). Further, the “% Relative Potency Ratio” value in assay [2] (Table 7) was 7.0.
In the case of `CC[C@H](C)[C@H](NC(=O)[C@H](CO)NC(=O)[C@H](CCCCNC(=O)COCCOCCNC(=O)COCCOCCNC(=O)CC[C@H](NC(=O)CC[C@H](NC(=O)CCCCCCCCCCCCCCCCC(=O)O)C(=O)O)C(=O)O)NC(=O)[C@@H](NC(=O)[C@](C)(Cc1ccccc1)NC(=O)[C@H](CC(=O)O)NC(=O)[C@H](CCC(N)=O)NC(=O)[C@H](C)NC(=O)[C@H](C)NC(=O)[C@H](CCCNC(=N)N)NC(=O)[C@H](CO)NC(=O)[C@H](CC(=O)O)NC(=O)[C@H](CC(C)C)NC(=O)[C@](C)(Cc1ccccc1)NC(=O)[C@H](CCCCN)NC(=O)[C@H](CO)NC(=O)[C@@H](NC(=O)[C@H](CC(=O)O)NC(=O)[C@H](CO)NC(=O)[C@@H](NC(=O)[C@](C)(Cc1ccccc1)NC(=O)[C@H](CO)NC(=O)CNC(=O)[C@H](Cc1c[nH]cn1)NC(=O)C(C)(C)NC(=O)[C@@H](N)Cc1c[nH]cn1)[C@@H](C)O)C(C)C)C(C)C)C(=O)N[C@@H](C)C(=O)N[C@@H](CC(N)=O)C(=O)N[C@H](C(N)=O)[C@@H](C)O` [Peptide 378] (H-H[Aib]HGS[αMeF]TSDVSK[αMeF]LDSRAAQD[αMeF]VK([AEEA-AEEA-γGlu-γGlu-C18 diacid])SIANT-NH2; N-terminus assumed), the EC50 worked out at 0.158 nM in assay [1] (cAMP, CHO cells, 0.1% BSA) and 0.159 nM in assay [2] (cAMP, CHO cells, 0.1% BSA). Moreover, in assay [2], the “% Relative Potency Ratio” value turned out to be 2.0.
Regarding `CC(C)C[C@H](NC(=O)[C@H](Cc1c[nH]c2ccccc12)NC(=O)[C@H](CCCNC(=N)N)NC(=O)[C@@H](NC(=O)[C@H](Cc1ccccc1)NC(=O)[C@H](CC(=O)O)NC(=O)[C@H](CCC(N)=O)NC(=O)[C@H](C)NC(=O)[C@H](CCCNC(=N)N)NC(=O)[C@H](CCCCNC(=O)COCCOCCNC(=O)COCCOCCNC(=O)CC[C@H](NC(=O)CC[C@H](NC(=O)CCCCCCCCCCCCCCCCC(=O)O)C(=O)O)C(=O)O)NC(=O)[C@H](CO)NC(=O)[C@H](CC(=O)O)NC(=O)[C@H](CC(C)C)NC(=O)[C@](C)(Cc1ccccc1)NC(=O)[C@H](CCCCN)NC(=O)[C@H](CO)NC(=O)[C@@H](NC(=O)[C@H](CC(=O)O)NC(=O)[C@H](CO)NC(=O)[C@@H](NC(=O)[C@H](Cc1ccccc1)NC(=O)[C@@H](NC(=O)CNC(=O)[C@H](CCC(N)=O)NC(=O)C(C)(C)NC(=O)[C@@H](N)Cc1c[nH]cn1)[C@@H](C)O)[C@@H](C)O)C(C)C)C(C)C)C(=O)N[C@@H](CCC(=O)O)C(=O)N[C@@H](C)C(=O)NC(C)(C)C(=O)NCC(N)=O` [Peptide 430] (H-H[Aib]QGTFTSDVSK[αMeF]LDSK([AEEA-AEEA-γGlu-γGlu-C18 diacid])RAQDFVRWLEA[Aib]G-NH2; N-terminus assumed), the EC50 in assay [1] (setting [3]) was determined as 0.16 nM; in assay [2] (setting [4]), 0.0244 nM. Besides, in assay [2] (Table 6), the “% Relative Potency Ratio” value stood at 13.0.
For `CC[C@H](C)[C@H](NC(=O)[C@H](CO)NC(=O)[C@H](CCC(=O)O)NC(=O)[C@@H](NC(=O)[C@](C)(Cc1ccccc1)NC(=O)[C@H](CC(=O)O)NC(=O)[C@H](CCCNC(=N)N)NC(=O)[C@H](C)NC(=O)[C@H](C)NC(=O)[C@H](CCCCNC(=O)COCCOCCNC(=O)COCCOCCNC(=O)CC[C@H](NC(=O)CCCCCCCCCCCCCCCCC(=O)O)C(=O)O)NC(=O)[C@H](CO)NC(=O)[C@H](CC(=O)O)NC(=O)[C@H](CC(C)C)NC(=O)[C@](C)(Cc1ccccc1)NC(=O)[C@H](CCCCN)NC(=O)[C@H](CO)NC(=O)[C@@H](NC(=O)[C@H](CC(=O)O)NC(=O)[C@H](CO)NC(=O)[C@@H](NC(=O)[C@](C)(Cc1ccccc1)NC(=O)[C@H](CO)NC(=O)CNC(=O)[C@H](Cc1c[nH]cn1)NC(=O)C(C)(C)NC(=O)[C@@H](N)Cc1c[nH]cn1)[C@@H](C)O)C(C)C)C(C)C)C(=O)N[C@@H](C)C(=O)N[C@@H](CC(N)=O)C(=O)N[C@H](C(N)=O)[C@@H](C)O` [Peptide 17] (H-H[Aib]HGS[αMeF]TSDVSK[αMeF]LDSK([AEEA-AEEA-γGlu-C18 diacid])AARD[αMeF]VESIANT-NH2; N-terminus assumed), in that order: 0.135 nM, 0.045 nM and 5.9.

The values are drawn from patent US20250353891A1 (MEDIMMUNE LIMITED, priority 2022, published 2025).
